What was measured:
Assay in all cases: relative viability (nuclei count vs DMSO), 5 days (fraction); higher = more cells survive
Cediranib + OSI-027 = compound: COc1cc2c(Oc3ccc4[nH]c(C)cc4c3F)ncnc2cc1OCCCN1CCCC1 [Cediranib] + COc1cccc2cc(-c3nc([C@H]4CC[C@H](C(=O)O)CC4)n4ncnc(N)c34)[nH]c12 [OSI-027] (partner 0.5 µM)
How it was run: (§1)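 A single step with final 0.05% Triton X-100, 1% formaldehyde and 1 ug/ml Hoechst fixed the cells and stained nuclei 5 days after treatment. Lung cancer cell lines in 1536-well plates had been treated by pin tool the day after seeding with one drug alone or a fixed anchor-drug dose plus five library-drug doses (not always all listed) in √10 steps, and nuclei were counted on 4× images. Relative viability is the ratio of nuclei in treated wells to nuclei in vehicle wells, taken as the median of duplicate plates.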

Decitabine + Foretinib = compound: Nc1ncn([C@H]2C[C@H](O)[C@@H](CO)O2)c(=O)n1 [Decitabine] + COc1cc2c(Oc3ccc(NC(=O)C4(C(=O)Nc5ccc(F)cc5)CC4)cc3F)ccnc2cc1OCCCN1CCOCC1 [Foretinib] (partner 0.25 µM)
How it was run: as §1

Decitabine + Vorinostat = compound: Nc1ncn([C@H]2C[C@H](O)[C@@H](CO)O2)c(=O)n1 [Decitabine] + O=C(CCCCCCC(=O)Nc1ccccc1)NO [Vorinostat] (partner 1 µM)
How it was run: as §1

[1] = compound: O=C(C[C@H]1NCCC[C@@H]1O)Cn1cnc2cc(Br)c(Cl)cc2c1=O (racemic) [Halofuginone] + Nc1ncn([C@H]2C[C@H](O)[C@@H](CO)O2)c(=O)n1 [Decitabine] (partner 2 µM)
How it was run: as §1

Cell Line	relative viability (Cediranib + OSI-027; first compound 0.1265 µM)	relative viability (Cediranib + OSI-027; first compound 0.4 µM)	relative viability (Cediranib + OSI-027; first compound 1.265 µM)	relative viability (Cediranib + OSI-027; first compound 4 µM)	relative viability (Decitabine + Foretinib; first compound 0.04 µM)	relative viability (Decitabine + Foretinib; first compound 0.1265 µM)	relative viability (Decitabine + Foretinib; first compound 0.4 µM)	relative viability (Decitabine + Foretinib; first compound 1.265 µM)	relative viability (Decitabine + Foretinib; first compound 4 µM)	relative viability (Decitabine + Vorinostat; first compound 0.04 µM)	relative viability (Decitabine + Vorinostat; first compound 0.1265 µM)	relative viability (Decitabine + Vorinostat; first compound 0.4 µM)	relative viability (Decitabine + Vorinostat; first compound 1.265 µM)	relative viability (Decitabine + Vorinostat; first compound 4 µM)	relative viability ([1]; first compound 0.001 µM)	relative viability ([1]; first compound 0.003162 µM)	relative viability ([1]; first compound 0.01 µM)	relative viability ([1]; first compound 0.03162 µM)	relative viability ([1]; first compound 0.1 µM)	relative viability (Cediranib + OSI-027; first compound 0.04 µM)
NCI-H727	0.486	0.523	0.468	0.617	0.669	0.675	0.651	0.775	0.483	1.08	0.973	0.664	0.835	1.1	0.85	0.764	0.954	0.944	0.723	
NCI-H838	0.364	0.379	0.348	0.483	0.716	0.492	0.357	0.387	0.301	0.701	0.595	0.641	0.383	0.34	0.502	0.465	0.445	0.458	0.281	0.41
NCI-H1355	0.363	0.387	0.34	0.449	0.568	0.596	0.436	0.374	0.305	0.496	0.554	0.34	0.3	0.256	0.401	0.332	0.359	0.351	0.385	0.38
NCI-H1395	0.751	0.62	0.615	0.608	0.798	0.801	0.687	0.586	0.55	0.548	0.634	0.605	0.429	0.524	0.662	0.69	0.751	0.631	0.519	0.628
NCI-H1437	0.992	0.796	0.851	1.02	1.11	0.881	0.657	0.468	0.391	0.522	0.542	0.444	0.373	0.421	0.621	0.555	0.513	0.522	0.522	0.841
NCI-H1650	0.596	0.589	0.577	0.436	0.903	0.855	0.553	0.512	0.301	0.358	0.367	0.318	0.195	0.215	0.468	0.5	0.439	0.491	0.369	0.781
NCI-H1651	0.652	0.721	0.606	0.778	0.685	0.942	0.783	0.647	0.526	0.478	0.456	0.483	0.296	0.407	0.592	0.563	0.601	0.591	0.58	0.59
NCI-H1666	0.809	0.891	0.802	0.805	0.91	0.86	0.776	0.662	0.68	0.943	1.05	0.922	0.894	0.836	0.769	0.601	0.724	0.795	0.794	0.9

From the supplement of paper PMC10307832
